Legend:
[1] = tested on: A549 lung adenocarcinoma cells; assay: A549 proliferation assay (Cell Titer Glo); format: cell-based; settings: Homo sapiens, A549, 168 h, 7 days with compound, cell viability by Cell Titer Glo (ATP)
Method in brief: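 A549 cells plated overnight, then treated with nine-point 3.3-fold dilutions (final top 10 μM, 0.2% DMSO) for 7 days at 37 °C, with media and compound refreshed on day 4. Viability measured as ATP by Cell Titer Glo luminescence; IC50 from 4-parameter fit normalized to DMSO control.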

[2] = biological target: PRMT5/MEP50 protein complex (Homo sapiens (Human), UniProt O14744); assay: PRMT5 biochemical assay (3H-SAM methylation of H4(1-21) peptide, filter plate scintillation); settings: 10 nM PRMT5/MEP50 complex, 200 nM H4(1-21) peptide, 1 uM SAM, 25 minute incubation at room temperature
Method in brief: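 Scintillation read-out: after 25 min at room temperature and a TCA stop, tritiated H4(1-21) product (peptide 200 nM) is caught on a filter plate. Reaction holds 10 nM PRMT5/MEP50 and 1 uM 3H-labelled plus cold SAM in 50 mM Tris pH 8.5 with MgCl2, EDTA and TCEP. IC50 values come from a 4-parameter dose-response fit.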

Sequence of PRMT5/MEP50 protein complex (O14744 other isoform, or with tags, fused parts or gaps): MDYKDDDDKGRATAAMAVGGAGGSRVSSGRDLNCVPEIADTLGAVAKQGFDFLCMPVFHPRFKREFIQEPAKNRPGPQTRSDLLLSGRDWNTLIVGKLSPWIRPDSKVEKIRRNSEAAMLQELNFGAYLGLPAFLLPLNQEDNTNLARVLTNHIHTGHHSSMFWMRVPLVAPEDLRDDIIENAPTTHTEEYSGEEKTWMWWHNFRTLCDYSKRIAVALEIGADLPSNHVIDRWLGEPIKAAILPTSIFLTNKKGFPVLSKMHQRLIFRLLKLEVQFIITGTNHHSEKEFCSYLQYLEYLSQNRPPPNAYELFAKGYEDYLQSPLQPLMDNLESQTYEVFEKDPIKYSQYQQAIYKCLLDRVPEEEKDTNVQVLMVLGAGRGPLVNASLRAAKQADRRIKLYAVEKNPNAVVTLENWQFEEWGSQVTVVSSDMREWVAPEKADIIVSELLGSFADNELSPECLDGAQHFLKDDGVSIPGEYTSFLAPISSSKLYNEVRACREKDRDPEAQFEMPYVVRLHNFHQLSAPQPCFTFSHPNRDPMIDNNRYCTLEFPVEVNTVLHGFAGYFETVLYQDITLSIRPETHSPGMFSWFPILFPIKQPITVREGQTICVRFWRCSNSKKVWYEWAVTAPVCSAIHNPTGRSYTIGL
Sequence of PRMT5/MEP50 protein complex (Q9BQA1 whole entry partner): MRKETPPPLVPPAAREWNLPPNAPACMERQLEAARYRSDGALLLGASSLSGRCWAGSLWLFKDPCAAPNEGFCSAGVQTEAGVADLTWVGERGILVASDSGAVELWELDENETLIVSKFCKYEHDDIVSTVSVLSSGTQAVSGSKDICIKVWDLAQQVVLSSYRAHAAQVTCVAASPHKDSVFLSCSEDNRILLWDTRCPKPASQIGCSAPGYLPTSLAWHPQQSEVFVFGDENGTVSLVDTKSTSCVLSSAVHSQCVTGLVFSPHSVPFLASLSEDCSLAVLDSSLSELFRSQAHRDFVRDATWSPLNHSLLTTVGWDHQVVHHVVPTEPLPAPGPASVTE

| SMILES | IC50 [1] | IC50 [2] |
| --- | --- | --- |
| Cc1ncnc2c1ccn2[C@@H]1C[C@H](Oc2ccc(Cl)cc2CN)[C@@H](O)[C@H]1O [Example 159, (1S,2S,3S,5R)-3-(2-(aminomethyl)-4-chlorophenoxy)-5-(4-methyl-7H-pyrrolo[2,3-d]pyrimidin-7-yl)cyclopentane-1,2-diol] | 5200 nM | 5 nM |
| Cc1ncnc2c1ccn2[C@@H]1C[C@H]([C@H](O)c2ccc(Cl)c(F)c2)[C@@H](O)[C@H]1O [Example 160, (1S,2R,3R,5R)-3-((S)-(4-chloro-3-fluorophenyl)(hydroxy)methyl)-5-(4-methyl-7H-pyrrolo[2,3-d]pyrimidin-7-yl)cyclopentane-1,2-diol] | 405 nM | 9 nM |
| Cc1ncnc2c1ccn2[C@@H]1C[C@H](Oc2cccc3c2CNCCO3)[C@@H](O)[C@H]1O [Example 164, (1S,2S,3R,5S)-3-(4-methyl-7H-pyrrolo[2,3-d]pyrimidin-7-yl)-5-((2,3,4,5-tetrahydrobenzo[f][1,4]oxazepin-6-yl)oxy)cyclopentane-1,2-diol] | 3860 nM | 4 nM |
| Cc1ncnc2c1ccn2[C@@H]1C[C@H](Oc2cc(-c3cn[nH]c3)cc3c2CNCC3)[C@@H](O)[C@H]1O [Example 165, (1S,2S,3S,5R)-3-((6-(1H-pyrazol-4-yl)-1,2,3,4-tetrahydroisoquinolin-8-yl)oxy)-5-(4-methyl-7H-pyrrolo[2,3-d]pyrimidin-7-yl)cyclopentane-1,2-diol] | 766 nM | 2 nM |
| Cc1cc2cccc(O[C@H]3C[C@@H](n4ccc5c(C)ncnc54)[C@H](O)[C@@H]3O)c2cn1 [Example 169, (1S,2S,3R,5S)-3-(4-methyl-7H-pyrrolo[2,3-d]pyrimidin-7-yl)-5-((3-methylisoquinolin-8-yl)oxy)cyclopentane-1,2-diol] | 743 nM | 37 nM |
| Cc1ncc2c(F)cn([C@@H]3C[C@H](Oc4cc(C#N)cc5c4CNCC5)[C@@H](O)[C@H]3O)c2n1 [Example 173, 8-(((1S,2S,3S,4R)-4-(5-fluoro-2-methyl-7H-pyrrolo[2,3-d]pyrimidin-7-yl)-2,3-dihydroxycyclopentyl)oxy)-1,2,3,4-tetrahydroisoquinoline-6-carbonitrile] | 3570 nM | 3 nM |
| Cc1ncc2c(F)cn([C@@H]3C[C@H](Oc4cc(Cl)cc5c4CNCC5)[C@@H](O)[C@H]3O)c2n1 [Example 175, (1S,2S,3S,5R)-3-((6-chloro-1,2,3,4-tetrahydroisoquinolin-8-yl)oxy)-5-(5-fluoro-2-methyl-7H-pyrrolo[2,3-d]pyrimidin-7-yl)cyclopentane-1,2-diol] | 3230 nM | 5 nM |
| Cc1ncnc2c1c(F)cn2[C@@H]1C[C@H](Oc2cc(Cl)cc3c2CNCC3)[C@@H](O)[C@H]1O [Example 176, (1S,2S,3S,5R)-3-((6-chloro-1,2,3,4-tetrahydroisoquinolin-8-yl)oxy)-5-(5-fluoro-4-methyl-7H-pyrrolo[2,3-d]pyrimidin-7-yl)cyclopentane-1,2-diol] | 1560 nM | 2 nM |
| Cc1ncnc2c1c(F)cn2[C@@H]1C[C@H](Oc2cc(F)c(F)c3c2CNCC3)[C@@H](O)[C@H]1O [Example 177, (1S,2S,3S,5R)-3-((5,6-difluoro-1,2,3,4-tetrahydroisoquinolin-8-yl)oxy)-5-(5-fluoro-4-methyl-7H-pyrrolo[2,3-d]pyrimidin-7-yl)cyclopentane-1,2-diol] | 2370 nM | 4 nM |
| Cc1cc2c(c(O[C@H]3C[C@@H](n4ccc5c(C)ncnc54)[C@H](O)[C@@H]3O)n1)CNCC2 [Example 181, (1S,2S,3S,5R)-3-((3-methyl-5,6,7,8-tetrahydro-2,7-naphthyridin-1-yl)oxy)-5-(4-methyl-7H-pyrrolo[2,3-d]pyrimidin-7-yl)cyclopentane-1,2-diol] | 1140 nM | 1 nM |
| Cc1ncnc2c1ccn2[C@@H]1C[C@H](Oc2nc(C(F)F)cc3c2CNCC3)[C@@H](O)[C@H]1O [Example 194, (1S,2S,3S,5R)-3-((3-(difluoromethyl)-5,6,7,8-tetrahydro-2,7-naphthyridin-1-yl)oxy)-5-(4-methyl-7H-pyrrolo[2,3-d]pyrimidin-7-yl)cyclopentane-1,2-diol] | 111 nM | 1 nM |
| Nc1ncnc2c1c(F)cn2[C@@H]1C[C@H](Oc2cc(C(F)F)c(F)c3c2CNCC3)[C@@H](O)[C@H]1O [Example 196, (1S,2S,3R,5S)-3-(4-amino-5-fluoro-7H-pyrrolo[2,3-d]pyrimidin-7-yl)-5-((6-(difluoromethyl)-5-fluoro-1,2,3,4-tetrahydroisoquinolin-8-yl)oxy)cyclopentane-1,2-diol] | 3 nM | 1 nM |
| Cc1ncnc2c1ccn2[C@@H]1C[C@H](Oc2cccc3c2CN[C@@H](C)CO3)[C@@H](O)[C@H]1O [Example 207, (1S,2S,3S,5R)-3-(((S)-3-methyl-2,3,4,5-tetrahydrobenzo[f][1,4]oxazepin-6-yl)oxy)-5-(4-methyl-7H-pyrrolo[2,3-d]pyrimidin-7-yl)cyclopentane-1,2-diol] | 1480 nM | 24 nM |

Second part, the compound after the results:

| IC50 [1] | IC50 [2] | SMILES |
| --- | --- | --- |
| 4880 nM | 2 nM | Cc1ncnc2c1ccn2[C@@H]1C[C@H](Oc2cc(F)c(F)cc2CN)[C@@H](O)[C@H]1O [Example 148, (1S,2S,3S,5R)-3-(2-(aminomethyl)-4,5-difluorophenoxy)-5-(4-methyl-7H-pyrrolo[2,3-d]pyrimidin-7-yl)cyclopentane-1,2-diol] |
| 2 nM | 1 nM | Cc1ncnc2c1ccn2[C@@H]1C[C@H](Oc2cc(C(F)F)cc3c2CNCC3)[C@@H](O)[C@H]1O [Example 154, (1S,2S,3S,5R)-3-((6-(difluoromethyl)-1,2,3,4-tetrahydroisoquinolin-8-yl)oxy)-5-(4-methyl-7H-pyrrolo[2,3-d]pyrimidin-7-yl)cyclopentane-1,2-diol] |
| 39 nM | 3 nM | Cc1ncnc2c1ccn2[C@@H]1C[C@H](Oc2cc(-c3cn[nH]c3)c(F)c3c2CNCC3)[C@@H](O)[C@H]1O [Example 166, (1S,2S,3S,5R)-3-((5-fluoro-6-(1H-pyrazol-4-yl)-1,2,3,4-tetrahydroisoquinolin-8-yl)oxy)-5-(4-methyl-7H-pyrrolo[2,3-d]pyrimidin-7-yl)cyclopentane-1,2-diol] |
| 4060 nM | 2 nM | Cc1ncc2c(F)cn([C@@H]3C[C@H](Oc4cc(F)c(F)c5c4CNCC5)[C@@H](O)[C@H]3O)c2n1 [Example 178, (1S,2S,3S,5R)-3-((5,6-difluoro-1,2,3,4-tetrahydroisoquinolin-8-yl)oxy)-5-(5-fluoro-2-methyl-7H-pyrrolo[2,3-d]pyrimidin-7-yl)cyclopentane-1,2-diol] |
| 159 nM | 3 nM | Nc1ncnc2c1ccn2[C@@H]1C[C@H](Oc2ccc(F)c3c2CNCC3)[C@@H](O)[C@H]1O [Example 180, (1S,2S,3R,5S)-3-(4-amino-7H-pyrrolo[2,3-d]pyrimidin-7-yl)-5-((5-fluoro-1,2,3,4-tetrahydroisoquinolin-8-yl)oxy)cyclopentane-1,2-diol] |
| 7020 nM | 1 nM | COc1nc(O[C@H]2C[C@@H](n3ccc4c(C)ncnc43)[C@H](O)[C@@H]2O)c2c(c1F)CCNC2 [Example 191, (1S,2S,3S,5R)-3-((4-fluoro-3-methoxy-5,6,7,8-tetrahydro-2,7-naphthyridin-1-yl)oxy)-5-(4-methyl-7H-pyrrolo[2,3-d]pyrimidin-7-yl)cyclopentane-1,2-diol] |
| 22 nM | 1 nM | Nc1ncnc2c1c(F)cn2[C@@H]1C[C@H](Oc2cc(C(F)F)cc3c2CNCC3)[C@@H](O)[C@H]1O [Example 195, (1S,2S,3R,5S)-3-(4-amino-5-fluoro-7H-pyrrolo[2,3-d]pyrimidin-7-yl)-5-((6-(difluoromethyl)-1,2,3,4-tetrahydroisoquinolin-8-yl)oxy)cyclopentane-1,2-diol] |
| 3460 nM | 1 nM | Cc1ncnc2c1ccn2[C@@H]1C[C@H](Oc2cc(-c3cnoc3)cc3c2CNCC3)[C@@H](O)[C@H]1O [Example 197, (1S,2S,3S,5R)-3-((6-(isoxazol-4-yl)-1,2,3,4-tetrahydroisoquinolin-8-yl)oxy)-5-(4-methyl-7H-pyrrolo[2,3-d]pyrimidin-7-yl)cyclopentane-1,2-diol] |
| 3820 nM | 1 nM | COc1cc(O[C@H]2C[C@@H](n3ccc4c(C)ncnc43)[C@H](O)[C@@H]2O)c2c(c1F)CCNC2 [Example 198, (1S,2S,3S,5R)-3-((5-fluoro-6-methoxy-1,2,3,4-tetrahydroisoquinolin-8-yl)oxy)-5-(4-methyl-7H-pyrrolo[2,3-d]pyrimidin-7-yl)cyclopentane-1,2-diol] |
| 1760 nM | 1 nM | Cc1ncnc2c1ccn2[C@@H]1C[C@H](Oc2cc(C#N)cc3c2CNCCO3)[C@@H](O)[C@H]1O [Example 202, 6-(((1S,2S,3S,4R)-2,3-dihydroxy-4-(4-methyl-7H-pyrrolo[2,3-d]pyrimidin-7-yl)cyclopentyl)oxy)-2,3,4,5-tetrahydrobenzo[f][1,4]oxazepine-8-carbonitrile] |
| 677 nM | 1 nM | Cc1ncnc2c1ccn2[C@@H]1C[C@H](Oc2cc(F)cc3c2CNCCO3)[C@@H](O)[C@H]1O [Example 203, (1S,2S,3S,5R)-3-((8-fluoro-2,3,4,5-tetrahydrobenzo[f][1,4]oxazepin-6-yl)oxy)-5-(4-methyl-7H-pyrrolo[2,3-d]pyrimidin-7-yl)cyclopentane-1,2-diol] |
| 720 nM | 2 nM | Cc1ncnc2c1ccn2[C@@H]1C[C@H](Oc2cc(Cl)cc3c2CNCCO3)[C@@H](O)[C@H]1O [Example 204, (1S,2S,3S,5R)-3-((8-chloro-2,3,4,5-tetrahydrobenzo[f][1,4]oxazepin-6-yl)oxy)-5-(4-methyl-7H-pyrrolo[2,3-d]pyrimidin-7-yl)cyclopentane-1,2-diol] |
